What is called IC50 is the concentration that gives 50% inhibition.

The structures appear in SMILES notation.

The target of this assay is T1, GLUT1 (Homo sapiens, UniProt P11166).
T1 sequence (P11166 1-492): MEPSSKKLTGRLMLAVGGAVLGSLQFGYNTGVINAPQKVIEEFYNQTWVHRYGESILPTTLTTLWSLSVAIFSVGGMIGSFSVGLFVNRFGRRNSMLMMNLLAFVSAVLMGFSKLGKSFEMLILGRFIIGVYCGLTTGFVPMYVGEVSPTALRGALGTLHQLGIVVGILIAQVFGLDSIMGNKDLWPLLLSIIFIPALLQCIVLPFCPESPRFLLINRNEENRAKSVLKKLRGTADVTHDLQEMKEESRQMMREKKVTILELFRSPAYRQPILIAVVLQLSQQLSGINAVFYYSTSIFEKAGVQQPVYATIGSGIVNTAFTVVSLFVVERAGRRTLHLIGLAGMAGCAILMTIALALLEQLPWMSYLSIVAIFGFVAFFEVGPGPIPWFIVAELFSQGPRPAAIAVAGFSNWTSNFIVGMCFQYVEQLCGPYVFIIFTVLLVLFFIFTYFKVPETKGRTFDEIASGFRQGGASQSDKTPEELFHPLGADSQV
As to the kind of experiment: Indirect measurement of GLUT1 activity by quantification of intracellular ATP levels (glucose induced ATP increase). It counts as cell-based. As to conditions: read-out: IC50 regarding glucose induced ATP increase (GLUT1 inhibition). Set-up: endogenous in cells; host or cells: DLD1 or CHO-K1. The procedure, abridged:
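Intracellular ATP was measured by CellTiter-Glo luminescence as an indirect readout of transport: glucose-driven for GLUT1, fructose-driven for GLUT2. DLD1 or CHO-K1 cells were used alongside an oxidative phosphorylation inhibitor. Beforehand, cells were held overnight in glucose-free 1% FCS medium to deplete ATP.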
On to `Cc1nn(Cc2ccc(O)cc2)c(C)c1NC(=O)c1cc(C(F)(F)F)nc2ccc(Br)cc12` [Example 164, 6-bromo-N-[1-(4-hydroxybenzyl)-3,5-dimethyl-1H-pyrazol-4-yl]-2-(trifluoromethyl)quinoline-4-carboxamide], for which the IC50 stood at 27.1 nM.
Regarding `Cc1cccc(Cn2nc(C)c(NC(=O)c3cc(C(F)(F)F)nc4ccc(Br)cc34)c2C)c1` [Example 52, 6-bromo-N-[3,5-dimethyl-1-(3-methylbenzyl)-1H-pyrazol-4-yl]-2-(trifluoromethyl)quinoline-4-carboxamide], the IC50 stood at 52.1 nM.
The figure for `Cc1c(NC(=O)c2cc(C(N)=O)nc3cc(F)c(Cl)cc23)c(C(F)(F)F)nn1Cc1ccncc1C#N` [Example 287, 6-chloro-N^4-{1-[(3-cyanopyridin-4-yl)methyl]-5-methyl-3-(trifluoromethyl)-1H-pyrazol-4-yl}-7-fluoroquinoline-2,4-dicarboxamide] is 4.8 nM; for `COc1cc(C(=O)Nc2c(C)nn(Cc3ccc(F)c(F)c3)c2C)c2ccccc2n1` [Example 55, N-[1-(3,4-difluorobenzyl)-3,5-dimethyl-1H-pyrazol-4-yl]-2-methoxyquinoline-4-carboxamide] it is 59.3 nM.
Turning to `CC(=O)NCCNC(=O)c1ccc(Cn2nc(C)c(NC(=O)c3cc(C(F)(F)F)nc4ccc(Br)cc34)c2C)cc1` [Example 1168], the IC50 came out at 179 nM.
In the case of `COc1ccc(Cn2nc(C(F)(F)F)c(NC(=O)c3cc(C(N)=O)nc4ccccc34)c2C)cn1` [Example 280, N^4-{1-[(6-methoxypyridin-3-yl)methyl]-5-methyl-3-(trifluoromethyl)-1H-pyrazol-4-yl}quinoline-2,4-dicarboxamide] it was 1.1 nM.
The figure for `COc1cc(C(=O)Nc2c(C(=O)N(C)C)nn(Cc3ccc(F)cc3)c2C)c2ccccc2n1` [Example 1265] is 2480 nM; for `Cc1ccc2nc(C)cc(C(=O)Nc3c(C)nn(Cc4cc(F)cc(F)c4)c3C)c2c1` [Example 1296] it is 11100 nM.
The figure for `Cc1nn(CC2CCN(S(=O)(=O)C3CCCC3)CC2)c(C)c1NC(=O)c1cc(C(N)=O)nc2ccccc12` [Example 1518] is 69.2 nM.
Regarding `Cc1nn(CC2CCNCC2)c(C)c1NC(=O)c1cc(C(N)=O)nc2ccccc12` [Example 1241], the IC50 was 1530 nM.
The figure for `Cc1nn(Cc2nccn2C)c(C)c1NC(=O)c1cc(C(N)=O)nc2ccccc12` [Example 1523] is 4140 nM; for `Cc1nn(Cc2cc(C3CC3)on2)c(C)c1NC(=O)c1cc(C(N)=O)nc2cc(F)ccc12` [Example 418, N^4-{1-[(5-cyclopropyl-1,2-oxazol-3-yl)methyl]-3,5-dimethyl-1H-pyrazol-4-yl}-7-fluoroquinoline-2,4-dicarboxamide] it is 4.1 nM; for `COc1cc(C(=O)Nc2c(C)nn(Cc3cn4ccccc4n3)c2C)c2ccccc2n1` [Example 1527] it is 228 nM.
The figure for `COc1cc(C(=O)Nc2c(C)nn(Cc3ccc(F)cc3)c2C)c2ccccc2n1` [Example 27, N-[1-(4-fluorobenzyl)-3,5-dimethyl-1H-pyrazol-4-yl]-2-methoxyquinoline-4-carboxamide] is 16.5 nM; for `Cc1c(NC(=O)c2cc(C(N)=O)nc3ccc(Br)cc23)c(C(F)(F)F)nn1Cc1ccc(CC#N)cc1` [Example 1595] it is 1.6 nM.
The figure for `Cc1nn(CC2CCOCC2)c(C)c1NC(=O)c1cc(C(F)(F)F)nc2cc(F)c(F)cc12` [Example 1262] is 2290 nM; for `CC(=O)c1ccc(Cn2nc(C(F)(F)F)c(NC(=O)c3cc(C(N)=O)nc4ccccc34)c2C)cc1` [Example 1604] it is 4.7 nM; for `Cc1ccc2nc(C)cc(C(=O)Nc3c(C)nn(Cc4ccc(C#N)cc4)c3C)c2c1` [Example 44, N-[1-(4-cyanobenzyl)-3,5-dimethyl-1H-pyrazol-4-yl]-2,6-dimethylquinoline-4-carboxamide] it is 32.1 nM.
Turning to `Cc1nn(Cc2ccc(C(=O)NCc3ccccn3)cc2)c(C)c1NC(=O)c1cc(C(F)(F)F)nc2ccc(Br)cc12` [Example 1068], the IC50 turned out to be 19.5 nM.
In the case of `Cc1ccc2nc(C)cc(C(=O)Nc3c(C(F)(F)F)nn(Cc4ccc(F)cc4F)c3C)c2c1` [Example 204, N-[1-(2,4-difluorobenzyl)-5-methyl-3-(trifluoromethyl)-1H-pyrazol-4-yl]-2,6-dimethylquinoline-4-carboxamide] it was 613 nM; in that of `Cc1ccccc1Cn1nc(C(F)(F)F)c(NC(=O)c2cc(C(N)=O)nc3cc(F)ccc23)c1C` [Example 1495], 7.3 nM; in that of `Cc1nn(Cc2ccc(CC#N)cc2)c(C)c1NC(=O)c1cc(C(N)=O)nc2ccccc12` [Example 1614], 0.8 nM.
In the case of `Cc1cc(Cn2nc(C)c(NC(=O)c3cc(C(N)=O)nc4cc(F)ccc34)c2C)no1` [Example 1541] it was 15.4 nM; in that of `Cc1nn(Cc2ccc(C#N)c(F)c2)c(C)c1NC(=O)c1cc(C(F)(F)F)nc2ccc(Br)cc12` [Example 218, 6-bromo-N-[1-(4-cyano-3-fluorobenzyl)-3,5-dimethyl-1H-pyrazol-4-yl]-2-(trifluoromethyl)quinoline-4-carboxamide], 3.4 nM; in that of `Cc1nn(Cc2ccc(C#N)nc2)c(C)c1NC(=O)c1cc(C(N)=O)nc2cc(F)ccc12` [Example 292, N^4-{1-[(6-cyanopyridin-3-yl)methyl]-3,5-dimethyl-1H-pyrazol-4-yl}-7-fluoroquinoline-2,4-dicarboxamide], 17 nM.
In the case of `Cc1cnc2ccccc2c1C(=O)Nc1c(C)nn(Cc2ccc(F)cc2)c1C` [Example 1252] it was 1870 nM; in that of `Cc1nn(Cc2ccc(F)cc2)c(C)c1NC(=O)c1cc(C(N)=O)nc2c(Cl)cc(Cl)cc12` [Example 127, 6,8-dichloro-N^4-[1-(4-fluorobenzyl)-3,5-dimethyl-1H-pyrazol-4-yl]quinoline-2,4-dicarboxamide], 3.1 nM; in that of `Cc1ccc2nc(C)cc(C(=O)Nc3c(C)nn(Cc4ccc(F)c(F)c4)c3C)c2c1` [Example 64, N-[1-(3,4-difluorobenzyl)-3,5-dimethyl-1H-pyrazol-4-yl]-2,6-dimethylquinoline-4-carboxamide], 130 nM.
For the compound `CC(=O)c1ccc(Cn2nc(C(F)(F)F)c(NC(=O)c3cc(C(N)=O)nc4cc(F)ccc34)c2C)cc1` [Example 1605], the IC50 is 2.6 nM.
In the case of `Cc1nn(CC2CCN(S(C)(=O)=O)CC2)c(C)c1NC(=O)c1cc(C(N)=O)nc2ccccc12` [Example 1094] it was 39.3 nM; in that of `COc1ccccc1Cn1nc(C(F)(F)F)c(NC(=O)c2cc(C(N)=O)nc3cc(F)ccc23)c1C` [Example 1588], 175 nM.
In the case of `CC(=O)c1cccc(Cn2nc(C)c(NC(=O)c3cc(C(N)=O)nc4cc(F)c(Cl)cc34)c2C)c1` [Example 1623] it was 0.8 nM; in that of `Cc1nn(Cc2ccc(C(=O)N[C@H](C)[C@@H](C)O)cc2)c(C)c1NC(=O)c1cc(C(F)(F)F)nc2ccc(Br)cc12` (relative stereo) [Example 1057], 15.1 nM; in that of `Cc1c(NC(=O)c2cc(C(N)=O)nc3cc(F)c(F)cc23)c(C(F)(F)F)nn1Cc1ccc(C#N)cn1` [Example 364, N^4-{1-[(5-cyanopyridin-2-yl)methyl]-5-methyl-3-(trifluoromethyl)-1H-pyrazol-4-yl}-6,7-difluoroquinoline-2,4-dicarboxamide], 6.6 nM.
For the compound `Cc1c(NC(=O)c2cc(C(N)=O)nc3cc(F)ccc23)c(C(F)(F)F)nn1Cc1cc(C(C)C)no1` [Example 1553], the IC50 amounted to 159 nM.
In the case of `Cc1nn(Cc2cccc(C#N)n2)c(C)c1NC(=O)c1cc(C(N)=O)nc2cc(F)ccc12` [Example 1707] it was 124 nM.
In the case of `COc1cc(C(=O)Nc2c(C)nn(Cc3c(F)cc(F)cc3F)c2C)c2ccccc2n1` [Example 50, N-[3,5-dimethyl-1-(2,4,6-trifluorobenzyl)-1H-pyrazol-4-yl]-2-methoxyquinoline-4-carboxamide] it was 50 nM.
Take `CNC(=O)CCNC(=O)c1ccc(Cn2nc(C)c(NC(=O)c3cc(C(F)(F)F)nc4ccc(Br)cc34)c2C)cc1` [Example 1157]: the IC50 amounted to 150 nM.
In the case of `CC(=O)c1ccc(Cn2nc(C)c(NC(=O)c3cc(C(N)=O)nc4ccccc34)c2C)cc1` [Example 1607] it was 3.5 nM.
The figure for `COCCNc1ccc2nc(C(N)=O)cc(C(=O)Nc3c(C(F)(F)F)nn(Cc4ccc(C#N)cc4)c3C)c2c1` [Example 344, N^4-[1-(4-cyanobenzyl)-5-methyl-3-(trifluoromethyl)-1H-pyrazol-4-yl]-6-[(2-methoxyethyl)amino]quinoline-2,4-dicarboxamide] is 5.8 nM; for `COc1cccc(Cn2nc(C(F)(F)F)c(NC(=O)c3cc(C(N)=O)nc4cc(F)ccc34)c2C)c1` [Example 1447] it is 23.2 nM; for `COc1cc2c(C(=O)Nc3c(C)nn(Cc4ccc(C#N)cc4)c3C)cc(C(N)=O)nc2cc1F` [Example 254, N^4-[1-(4-cyanobenzyl)-3,5-dimethyl-1H-pyrazol-4-yl]-7-fluoro-6-methoxyquinoline-2,4-dicarboxamide] it is 1.2 nM.
For the compound `Cc1nn(Cc2ccc(C(C)(C)C)cc2)c(C)c1NC(=O)c1cc(C(N)=O)nc2cc(F)ccc12` [Example 1383], the IC50 came out at 140 nM.
